Data on three compounds can be found in patent US20090186762A1, “METHOD FOR IMPROVING THE TOLERANCE OF PLANTS TO CHILLING TEMPERATURES AND/OR FROST” (BASF SE, priority 2006, published 2009).

Holding throughout (type): in vivo
The test system of assay [1] is Corn seeds (Zea mays; variety Pioneer herbicide resistant 33P71). In words: Cold stress on corn seedlings after seed treatment. The following applies: second exposure to cold stress (−5° C., 2 hours, code 13). Here is the method:
Corn seeds (Zea mays; variety Pioneer herbicide resistant 33P71) were treated using either:
T1: Water (untreated) T2: Pyraclostrobin (5 g active ingredient 100 kg seeds) T3. Azoxystrobin (1 g active ingredient/100 kg seeds)
Subsequently, the treated seeds were planted in plastic pots (6 cm×6 cm×7 cm) filled with sand (metro mix). Seeds were incubated in a growth chamber (Conviron) at 25° C. and 60% humidity under a dark/light cycle of 16/8 h for 5 days (seedlings were at code 10). At this point, seedlings were exposed to a temperature of −5° C. for 3 hours. Following cold stress, the viable seedlings were kept growing until they had reached code 13. At this stage, they were submitted to additional 2 hours of cold stress at −5° C. Finally, the number of damaged seedlings (%) for each seed treatment was recorded.

Assay [2] deals with Arabidopsis thaliana plants. As to the kind of experiment: Cold/freezing stress on Arabidopsis thaliana plants, visual assessment of % leaf damage. Particulars: for reduction of cold stress symptoms: Arabidopsis plants under different stress conditions. The protocol:
Arabidopsis thaliana plants were grown in pots (8 cm diameter) under controlled environmental conditions at 21° C. during the day and at 19° C. during the night, under a light regiment of 9 h light and 15 h dark per day.
Chemical treatment was done 18 days after sowing. Each pot was treated with 500 μl of spray solution according to the treatment schedule below with a commercial pump spray applicator.
2) Orysastrobin (250 ppm) 3) Orysastrobin (500 ppm) 4) Pyraclostrobin (500 ppm)
After chemical treatment, the pots have been transferred to the same growth conditions for three days. Then the pots were transferred to three different environmental conditions to exert cold stress:
Control plants (A) were kept under the same conditions as described above.
Stressed plants (B) were transferred for 2 days to 6° C. under a 9-15 h day-night cycle. This cold treatment allows Arabidopsis plants to acclimate to a certain extent to the following freezing stress (−4° C., 24 h in the dark) (Wanner et al., 1999, Cold-induced freezing tolerance in Arabidopsis, Plant Physiology 120, 391-399).
Stressed plants (C) were not cold-hardened and kept for another 2 days under control environment before being transferred for one day to −4° C. without light.
After these treatments, all pots were returned to standard growth conditions (controlled environmental conditions) as described above.
3 days and 9 days after chemical treatment (3 days after recovery from freezing treatment) the trial was evaluated by visual assessment, scoring the symptoms in % leaf damage.

In assay [3] the test system is Adult Citrus trees (Citrus sinensis). In words: Field freeze protection of adult Citrus trees by leaf application. The following applies: three 1600 g/ha leaf applications at 14 to 18 day intervals. The protocol:
Adult Citrus trees (Citrus sinensis) were treated by three 1600 g/ha pyraclostrobin leaf applications at 14 to 18 day intervals. Applications began shortly before the initial freeze in winter seasons. Temperatures dropped to −6° C. in three separate cold weather events. With extreme low temperatures, nothing is expected to reduce damage.

[4] abbreviates: stress condition A (control plants, 21° C./19° C., no cold stress), 500 ppm spray, 9 days after chemical treatment.
[5] abbreviates: stress condition B (2 days 6° C. hardening, then −4° C. 24 h dark), 500 ppm spray, 3 days after recovery from freezing.
[6] abbreviates: stress condition C (not cold-hardened, −4° C. 24 h dark), 500 ppm spray, 3 days after recovery from freezing.

In the case of `CO/C=C(/C(=O)OC)c1ccccc1Oc1cc(Oc2ccccc2C#N)ncn1` [Azoxystrobin, azoxystrobin], the “number of damaged seedlings (%)” value in assay [1] (seed treatment 1 g active ingredient/100 kg seeds) was 38%.

Consider `CNC(=O)/C(=N/OC)c1ccccc1CO/N=C(C)/C(=N/OC)C(/C)=N/OC` [Orysastrobin, orysastrobin], for which, in assay [2], the “reduction of cold stress symptoms” value is recorded as “highly effective to reduce cold stress symptoms”. The leaf damage in assay [2] (stress condition A (control plants, 21° C./19° C., no cold stress), 250 ppm spray, 9 days after chemical treatment) worked out at 0%; in assay [2] (setting [4]), 0%; in assay [2] (stress condition B (2 days 6° C. hardening, then −4° C. 24 h dark), 250 ppm spray, 3 days after recovery from freezing), 0%; in assay [2] (setting [5]), 0%; in assay [2] (stress condition C (not cold-hardened, −4° C. 24 h dark), 250 ppm spray, 3 days after recovery from freezing) it was 5%; in assay [2] (setting [6]), 10%.

pyraclostrobin: the “reduction of cold stress symptoms” value in assay [2] is on record as “highly effective to reduce cold stress symptoms”. Also, the leaf damage was 0% in assay [2] (setting [4]), 0% in assay [2] (setting [5]) and 30% in assay [2] (setting [6]). Moreover, the “chilling protection in citrus” value in assay [3] (temperatures dropped to −6° C.) was “strong chilling protection”. For the same compound, the “leaf burn symptoms and fruit drop versus untreated control plants” value in assay [3] (temperatures dropped to −6° C. in three cold weather events) was “less leaf burn symptoms and fruit drop”. The “number of damaged seedlings (%)” value in assay [1] (seed treatment 5 g active ingredient 100 kg seeds) is on record as 0%.
